This experiment is described as follows: Compound was evaluated for its ability to inhibit the NNRTI HIV-1 enzyme by 50% using enzyme assay.

Regarding `O=C1Nc2ccc(Cl)cc2[C@@](C#CC2CC2)(C(F)(F)F)N1`, half-maximal inhibition (IC50) was put at 0.031 µM.

In general, IC50 refers to the concentration that inhibits the measured activity by half. The low end stands for higher potency, the high end for lower potency.

(Values after BindingDB's records for doi:10.1016/s0960-894x(00)00662-4 (Dupont Pharmaceuticals, 2001).)
